Source: PMC10011554, “BET inhibitor trotabresib in heavily pretreated patients with solid tumors and diffuse large B-cell lymphomas” (Nature Communications, 2023)
Values joined by “and” are separate entries in the source; they are usually repeats but may differ in a detail not shown here. Equal entries are not always repeated. Where two headings read alike, the source gives them in different places.

Experiments:
[1] = Plasma pharmacokinetics and food effect, part C; assay type: in vivo, human; conditions: 45 mg/day; for AUC(0-t) / Cmax / Tmax / AUC(0-inf) / half-life / Vd/F: human, plasma, oral; for Cmax: n = 15, read-out: Cmax, GM (% GCV); for Tmax: n = 15, read-out: Median tmax (range); for AUC(0-inf): n = 15, read-out: AUCinf, GM (% GCV); for half-life: n = 15, read-out: Mean t½ (% CV) (converted); for Vd/F: n = 15, read-out: Vss/F, GM (% GCV)
Method: Response was assessed using Response Evaluation Criteria in Solid Tumors (RECIST) v1.1[54] in patients with solid tumors, International Working Group criteria in patients with DLBCL[55], and Response Assessment in Neuro-Oncology (RANO) criteria[56] in patients with CNS tumors (astrocytoma and glioblastoma). For patients with BCC, the response was assessed using a combination of radiological assessment of target lesions per RECIST v1.1, digital clinical photography assessed per World Health Organization (WHO) criteria, and punch biopsies to confirm CR. PK parameters assessed included Cmax, tmax, AUC, t½, apparent clearance (CL/F), and apparent volume of distribution (Vz/F).
Serial blood samples for PK and pharmacodynamic analyses were collected for each dosing schedule after the first and last doses in cycle 1. Additional blood samples for assessment of the food effect on trotabresib PK in part C were collected during cycle 2. The food effect–evaluable population comprised all patients with adequate PK data to allow calculation of trotabresib AUC from time 0 (day 1) to day 22 from both the fed and fasted treatment periods and who had completed a 4-h post-dose fast during the fasted cycle or consumed the entire high-fat, high-calorie meal during the fed cycle and had received all trotabresib doses during both treatment periods.

CCR1 mRNA = experiment: Blood CCR1 mRNA levels (QuantiGene, normalized to PPIB); assay type: in vivo, human; conditions: for decrease of blood PD marker CCR1 achieved: part A
Method: Changes in peripheral CCR1 mRNA levels, expression of which is modulated following BET inhibition, were assessed using QuantiGene technology (Thermo Fisher Scientific) and normalized to the expression of a control gene, peptidylprolyl isomerase B (PPIB). The data were presented as a percentage of pre-dose mRNA levels.

SU-DHL-2 (ABC DLBCL) = system: SU-DHL-2 (ABC DLBCL); parameters: method as in Report CC-90010-Pharm-1018; conditions: SU DHL 2, Experiment 2, ref Report CC-90010-Pharm-1018; read-out: absolute IC50, proliferation; cited from earlier work
OCI-LY-3 (ABC DLBCL) = system: OCI-LY-3 (ABC DLBCL); parameters: method as in Report CC-90010-Pharm-1018; conditions: OCI-LY-3, Experiment 1, ref Report CC-90010-Pharm-1018; read-out: absolute IC50, proliferation; cited from earlier work
OCI-LY-10 (DOX-R) = system: OCI-LY-10 (DOX-R); parameters: method as in Report CC-90010-Pharm-1018; conditions: Table 2, ref Report CC-90010-Pharm-1018, read-out: absolute IC50, proliferation; cited from earlier work
[2] = system: 14 PDX-derived GBM tumor models; parameters: method as in Investigator's Brochure; conditions: ref Investigator's Brochure, cited from earlier work
[3] = parameters: method as in Investigator's Brochure; conditions: dogs, ref Investigator's Brochure, cited from earlier work
CYP3A4/5, CYP2C8 = system: CYP3A4/5, CYP2C8; parameters: method as in Investigator's Brochure; conditions: ref Investigator's Brochure; cited from earlier work
[4] = system: CYP1A2, CYP2A6, CYP2B6, CYP2E1 and CYP3A4/5; parameters: method as in Investigator's Brochure; conditions: CYP1A2, CYP2A6, CYP2B6, CYP2E1 and CYP3A4/5, ref Investigator's Brochure; cited from earlier work
[5] = system: CYP1A2, CYP2A6, CYP2B6, CYP2C8, CYP2C9, CYP2C19, CYP2D6, CYP2E1, and CYP3A4/5; parameters: method as in Investigator's Brochure; conditions: all nine isozymes tested, ref Investigator's Brochure; cited from earlier work
OCT2 = system: OCT2; parameters: method as in Investigator's Brochure; conditions: OCT2, ref Investigator's Brochure; read-out: IC50, transporter inhibition; cited from earlier work
P-gp = system: P-gp; parameters: method as in Investigator's Brochure; conditions: ref Investigator's Brochure; cited from earlier work
[6] = parameters: method as in Investigator's Brochure; conditions: ref Investigator's Brochure, cited from earlier work
[7] = system: bacterial reverse mutation; parameters: method as in Investigator's Brochure; conditions: non-GLP, ref Investigator's Brochure; cited from earlier work

SMILES: Cn1cc(-c2cc(S(C)(=O)=O)ccc2OCC2CC2)c2ccccc2c1=O [trotabresib]
- Clss/F, GM (% GCV) ([1]; day 4, fasted, n = 15): 2.60 (25.89) L/h
- Median tmax (range) ([1]; day 4, fasted, n = 15): 1.50 (1.00–3.00) h
- Clss/F, GM (% GCV) ([1]; day 4, fed, n = 15): 2.65 (28.52) L/h
- AUC(0-t) ([1]; cycle 1 day 1, fasted, n = 14, read-out: AUC0–24, GM (% GCV)): 6650 ng·h/mL
- Cmax ([1]; cycle 1 day 1, fasted): 560 ng/mL
- Tmax ([1]; cycle 1 day 1, fasted): 1.55 h
- AUC(0-t) ([1]; day 4, fasted, n = 15, read-out: AUC0–24, GM (% GCV)): 17300 ng·h/mL
- AUC(0-inf) ([1]; day 4, fasted): 66500 ng·h/mL
- AUC(0-t) ([1]; day 4, fasted, n = 15, read-out: AUClast, GM (% GCV)): 65100 ng·h/mL
- Cmax ([1]; day 4, fasted): 1120 ng/mL
- half-life ([1]; day 4, fasted): 69.1 h
- Vd/F ([1]; day 4, fasted): 235 L
- AUC(0-t) ([1]; day 4, fed, n = 14, read-out: AUC0–24, GM (% GCV)): 16800 ng·h/mL
- AUC(0-inf) ([1]; day 4, fed): 67200 ng·h/mL
- AUC(0-t) ([1]; day 4, fed, n = 15, read-out: AUClast, GM (% GCV)): 65600 ng·h/mL
- Cmax ([1]; day 4, fed): 904 ng/mL
- half-life ([1]; day 4, fed): 67.8 h
- Tmax ([1]; day 4, fed): 4 h
- Vd/F ([1]; day 4, fed): 228 L
- decrease of blood PD marker CCR1 achieved (CCR1 mRNA; 30 mg 3-days-on/11-days off, 4 hours post last dose in the first cycle): ≥ 50%
- decrease of blood PD marker CCR1 achieved (CCR1 mRNA; 45 mg 4-days-on/24-days-off): ≥ 50%
- percentage of baseline CCR1 expression, individual patients (CCR1 mRNA; part B, 30 mg/day (n = 2), 4 h after last dose): 13.4467 % of baseline and 130.198 % of baseline
- percentage of baseline CCR1 expression, individual patients (CCR1 mRNA; part B, 30 mg/day (n = 3), 4 h after first dose): 50.27 % of baseline and 55.3963 % of baseline and 80.5103 % of baseline
- Mean CCR1 mRNA level (CCR1 mRNA; part B, 45 mg/day 4 days on/24 days off, 4 h after the first and last dose): < 50 % of baseline
- mean reduction of blood CCR1 mRNA (CCR1 mRNA; part B, 45 mg/day 4 days on/24 days off, after the first and last dose): > 50%
- percentage of baseline CCR1 expression, individual patients Pt 1-16 (CCR1 mRNA; part B, 45 mg/day 4 days on/24 days off, time 2 h): 30.5369 % of baseline and 28.4986 % of baseline and 30.4914 % of baseline and 56.7025 % of baseline and 34.2349 % of baseline and 126.292 % of baseline and 41.5689 % of baseline and 39.5781 % of baseline and 38.6952 % of baseline
- percentage of baseline CCR1 expression, individual patients Pt 1-16 (CCR1 mRNA; part B, 45 mg/day 4 days on/24 days off, time 72 h): 11.6428 % of baseline and 66.6434 % of baseline and 61.1466 % of baseline and 71.42 % of baseline and 107.064 % of baseline and 92.4076 % of baseline and 206.706 % of baseline and 11.5951 % of baseline and 29.4034 % of baseline and 32.6074 % of baseline and 46.3108 % of baseline and 35.5399 % of baseline and 51.254 % of baseline and 16.3541 % of baseline and 56.3318 % of baseline and 47.472 % of baseline
- percentage of baseline CCR1 expression, individual patients Pt 1-16 (CCR1 mRNA; part B, 45 mg/day 4 days on/24 days off, time 74 h): 7.664 % of baseline and 43.5783 % of baseline and 101.397 % of baseline and 68.6148 % of baseline and 66.624 % of baseline and 90.5744 % of baseline and 6.3621 % of baseline and 11.918 % of baseline and 23.0451 % of baseline and 38.3287 % of baseline and 18.1003 % of baseline and 30.2477 % of baseline and 30.0183 % of baseline and 30.3305 % of baseline
- percentage of baseline CCR1 expression, individual patients Pt 1-16 (CCR1 mRNA; part B, 45 mg/day 4 days on/24 days off, time 76 h): 7.416 % of baseline and 22.7163 % of baseline and 45.8741 % of baseline and 84.9845 % of baseline and 62.1329 % of baseline and 102.299 % of baseline and 97.8745 % of baseline and 12.7872 % of baseline and 26.7231 % of baseline and 38.7251 % of baseline and 59.7173 % of baseline and 32.5849 % of baseline and 15.5412 % of baseline and 32.2909 % of baseline and 34.1593 % of baseline
- percentage of baseline CCR1 expression, individual patients Pt 1-16 (CCR1 mRNA; part B, 45 mg/day 4 days on/24 days off, time 96 h): 18.2209 % of baseline and 101.061 % of baseline and 57.0673 % of baseline and 66.6995 % of baseline and 126.329 % of baseline and 107.431 % of baseline and 11.7759 % of baseline and 20.7746 % of baseline and 24.4742 % of baseline and 39.7466 % of baseline and 30.1049 % of baseline and 35.253 % of baseline and 12.8666 % of baseline and 60.4272 % of baseline and 48.4025 % of baseline
- percentage of baseline CCR1 expression, individual patients Pt 1-16 (CCR1 mRNA; part B, 45 mg/day 4 days on/24 days off, time 168 h): 1110.93 % of baseline and 46.7528 % of baseline and 137.362 % of baseline and 245.348 % of baseline and 178.841 % of baseline and 306.585 % of baseline and 142.224 % of baseline and 191.429 % of baseline and 72.8857 % of baseline and 69.6406 % of baseline and 101.659 % of baseline and 69.3899 % of baseline and 160.385 % of baseline and 78.4141 % of baseline and 220.588 % of baseline
- percentage of baseline CCR1 expression, individual patients Pt 1-16 (CCR1 mRNA; part B, 45 mg/day 4 days on/24 days off, time 192 h): 44.5123 % of baseline and 125.959 % of baseline and 259.615 % of baseline and 202.75 % of baseline and 242.493 % of baseline and 146.374 % of baseline and 154.035 % of baseline and 288.7 % of baseline and 109.004 % of baseline and 72.27 % of baseline and 78.3761 % of baseline and 79.513 % of baseline and 168.811 % of baseline and 147.701 % of baseline and 179.93 % of baseline
- percentage of baseline CCR1 expression, individual patients (CCR1 mRNA; part B, 45 mg/day (n = 15), 4 h after last dose): 26.7231 % of baseline and 32.2909 % of baseline and 32.5849 % of baseline and 34.1593 % of baseline and 38.7251 % of baseline and 45.8741 % of baseline and 59.7173 % of baseline and 62.1329 % of baseline and 84.9845 % of baseline and 97.8745 % of baseline and 102.299 % of baseline and 7.416 % of baseline and 12.7872 % of baseline and 15.5412 % of baseline and 22.7163 % of baseline
- percentage of baseline CCR1 expression, individual patients (CCR1 mRNA; part B, 45 mg/day (n = 16), 4 h after first dose): 31.799 % of baseline and 32.0053 % of baseline and 36.1061 % of baseline and 40.3422 % of baseline and 46.5342 % of baseline and 46.6648 % of baseline and 52.9092 % of baseline and 58.7813 % of baseline and 59.2329 % of baseline and 60.0574 % of baseline and 60.1703 % of baseline and 87.3968 % of baseline and 24.9251 % of baseline and 27.9014 % of baseline and 28.1552 % of baseline and 31.5602 % of baseline
- IC50 (SU-DHL-2 (ABC DLBCL)): 100 nM
- IC50 (OCI-LY-3 (ABC DLBCL)): 510 nM
- IC50 (OCI-LY-10 (DOX-R)): 1100 nM
- IC50 ([2]; read-out: overall mean IC50, colony formation): 620 ± 130 nM
- activity range of IC50 values [2]: 18 fold
- mean oral bioavailability [3]: 76%
- accumulation after repeat dosing ([3]; toxicokinetics): up to 3 fold
- enzymes mediating metabolism (CYP3A4/5, CYP2C8): mediated primarily by CYP3A4/5 with minor involvement of CYP2C8
- direct inhibitory effect [4]: little to no direct inhibitory effect
- time-dependent inhibition [5]: little to no time-dependent
- IC50 (OCT2): 8240 nM
- transporter substrate status (P-gp): substrate of P-gp
- severely toxic dose ([6]; 4-week rat study, 3 days on/4 days off): ≥ 20 mg base/kg/dose
- overarching rat STD10 ([6]; 3 days-on/4 days-off schedule): 20 mg base/kg/dose
- STD10 ([6]; female rats): 20 mg base/kg/dose
- STD10 ([6]; male rats): 30 mg base/kg/dose
- functional observational battery (FOB) effects ([6]; rat): no CC-90010-related FOB effects
- mean exposure corresponding to the rat STD10 [6]: 52800 ng·h/mL
- mutagenicity (Ames) [7]: non-mutagenic
